Assay results: patent US20060069132A1, “Azolecarboxamide herbicides” (priority 2004, published 2006)

How the values were obtained:
Assay in all cases: Test J Compounds 2 and 6 alone and in combination with other herbicides, foliage spray
Conditions in all cases: applied alone
pigweed (AMARE) = type: in vivo, Amaranthus retroflexus; parameters: key: 0 = no effect, 100 = complete control
How it was run: (§1)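 Greenhouse plants grown 7–11 days to 2–18 cm (1- to 4-leaf stage) were foliage-sprayed at 541 L/ha with compounds alone or mixed with atrazine, terbacil, hexazinone, diuron or paraquat in aqueous solvent with nonionic surfactant. Three replicates; injury rated visually 15 days after treatment, 0–100 versus untreated controls.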

lambsquarters (CHEAL) = type: in vivo, Chenopodium album; parameters: key: % herbicidal effect (observed)
Excerpt: Colby's Equation was used to calculate the expected additive herbicidal effect of the mixtures of Compound 6 with Harmony® Extra (i.e. a 2:1 mixture by weight of thifensulfuron-methyl and tribenuron-methyl). Colby's Equation (Colby, S. R. “Calculating Synergistic and Antagonistic Responses of Herbicide Combinations,” Weeds, 15(1), pp 20-22 (1967)) calculates the expected additive effect of herbicidal mixtures, and for two active ingredients is of the form: Pa+b=Pa+Pb−(PaPb/100) wherein • Pa+b is the percentage effect of the mixture expected from additive contribution of the individual components, • Pa is the observed percentage effect of the first active ingredient at the same use rate as in the mixture, and • Pb is the observed percentage effect of the second active ingredient at the same use rate as in the mixture.
Seeds of test plants consisting of barnyardgrass (ECHCG; Echinochloa crus-galli (L.) Beauv.), blackgrass (ALOMY; Alopecurus myosuroides Huds.), Surinam grass (BRADC; Urochloa decumbens (Staph) R. D. Webster, previously named Brachiaria decumbens Stapf), cocklebur (XANST, Xanthium strumarium L.), corn (ZEAMD, Zea mays L. cv. ‘Pioneer 33G26’), large crabgrass (DIGSA, Digitaria sanguinalis (L.) Scop.), giant foxtail (SETFA, Setaria faberi Herrm.), lambsquarters (CHEAL, Chenopodium album L.), morningglory (IPOCO, Ipomoea coccinea L.), pigweed (AMARE, Amaranthus retroflexus L.), velvetleaf (ABUTH, Abutilon theophrasti Medik.) wheat (TRZAS, Triticum aestivum L. cv. ‘Recital’) and wild oat (AVEFA, Avena fatua L.) were planted in Redi-Earth® planting medium (Scotts Company, 14111 Scottslawn Road, Marysville, Ohio 43041) comprising spaghnum peat moss and vermiculite. Seeds of small-seeded species were planted about 1 cm deep; larger seeds were planted about 2.5 cm deep. Plants were grown in a greenhouse using supplemental lighting to maintain a photoperiod of about 14 hours; daytime and nighttime temperatures were about 24-30° C. and 22-25° C., respectively. Balanced fertilizer was applied through the watering system. The plants were grown for 7 to 11 days so that at time of treatment the plants ranged in height from 2 to 18 cm (1- to 4-leaf stage). Treatments consisted of Compounds 2 and 6 (technical material), atrazine (90DF), terbacil (Sinbar® 80DF), hexazinone (Velpar® 75WG), diuron (Karmex® 80WP) and paraquat (Gramoxone® Extra, 37%) alone and in combination, suspended or dissolved in an aqueous solvent comprising a nonionic surfactant and applied as a foliage spray using a volume of 541 L/ha. Each treatment was triply replicated. […] Treated plants and controls were maintained in the greenhouse and watered as needed with care to not wet the foliage for the first 24 hours after treatment. The effects on the plants 15 days after treatment were visually compared to untreated controls. Plant response ratings, listed in Table J as the means of the thee replicates, are based on a scale of 0 to 100 where 0 is no effect and 100 is complete control. Also listed in Table J are the expected effects for the mixtures calculated using Colby's Equation.

Surinam grass (BRADC) = type: in vivo, Urochloa decumbens; parameters: key: 0 = no effect, 100 = complete control
How it was run: as §1

velvetleaf (ABUTH) = type: in vivo, Abutilon theophrasti; parameters: key: 0 = no effect, 100 = complete control
How it was run: as §1

## CCNC(=O)c1ccc(F)c(NC(=O)c2cc(C(C)(C)C)nn2CC)c1 [Compound 2, 3-(1,1-dimethylethyl)-1-ethyl-N-[5-[(ethylamino)carbonyl]-2-fluorophenyl]-1H-pyrazole-5-carboxamide]
Pigweed (AMARE); 62 g a.i./ha
  AMARE Obsd.: 47
Pigweed (AMARE); 125 g a.i./ha
  AMARE Obsd.: 68
Lambsquarters (CHEAL); 62 g a.i./ha
  CHEAL Obsd.: 40
Lambsquarters (CHEAL); 125 g a.i./ha
  CHEAL Obsd.: 55
Surinam grass (BRADC); 62 g a.i./ha
  BRADC Obsd.: 8
Surinam grass (BRADC); 125 g a.i./ha
  BRADC Obsd.: 17
Velvetleaf (ABUTH); 62 g a.i./ha
  ABUTH Obsd.: 17
Velvetleaf (ABUTH); 125 g a.i./ha
  ABUTH Obsd.: 18
